Source: patent publication US6803386B2, “Prostacyclin derivative containing compositions and methods of using the same for the treatment of cancer” (United Therapeutics Corporation, priority 2002, dated 2004)

What was measured:
[1] = system: human amelanotic melanoma cell line (LOX); assay: Apoptosis assay (Vybrant Apoptosis Assay Kit #4, YO-PRO); assay type: cell-based; conditions: LOX cells, overnight incubation; dosages 10^−12 to 10^−3 M; n=4
Procedure: An apoptosis assay marketed as Vybrant Apoptosis Assay Kit #4 from Molecular Probes, Inc., was obtained for the test. […] The apoptosis assay was performed four times (n=4) for each test compound.

[2] = system: human amelanotic melanoma cell line (LOX); assay: Collagen degradation inhibition assay (fluorescent-labeled Type I collagen matrix seeded with LOX cells); assay type: cell-based; conditions: LOX cells on Type I collagen matrix, dosages 10^−12 to 10^−3 M, n=4
[3] = system: human amelanotic melanoma cell line (LOX)
Procedure: A live cell toxicity assay marketed as LIVE/DEAD Viability/Cytotoxicity Kit by Molecular Probes, Inc. of Eugene, Oreg., was obtained for the test. The assays were carried out in accordance with the manufacturers' instructions using the LOX cells. The LOX cells (10^4/well) were cultured and incubated in a carbon dioxide incubator at 37° C. overnight and then gently washed with PBS.
Calcein Am (2 μM), a fluorescent dye available from Molecular Probes, Inc. for staining live cells, was added to the LOX cells. The Calcein-stained LOX cells were incubated at room temperature for about an hour. […] A positive fluorescence signal from the assay indicates the presence of viable cells in the test sample with the strength of the signal being proportional to the number of viable cells present.
The live cell toxicity assay was carried out four times (n=4) for each test compound.

CCCCC[C@@H](O)CC[C@H]1[C@H](O)CC2Cc3c(cccc3OCC(=O)O)C[C@@H]21 (stereo partly drawn) [compound of Formula II, 9-Deoxy-2′,9α-methano-3-oxa-4,5,6-trinor-3,7-(1′,3′-interphenylene)-13,14-dihydro-PGF1]
dosage at which a marked increase in the incidence of apoptosis was seen [1]: over 10^−4 M | IC50 ([2]; Homo sapiens): 10 nM | dosage at which collagen degradation activity by LOX cells was inhibited (lowest effective dosage) [2]: 2.5 nM | dosage at which cell toxicity / inhibited cell viability was exhibited [3]: over 10^−6 M
